Reference: patent US7687434B2, “Method of improving yield and vigor of plants” (Monsanto Technology, LLC, priority 2000, dated 2010)
Values after ≈ are worked out from the molar mass of the structure shown.

What was measured:
Rhizoctonia solani 15-10 = assay: In vitro inhibition of mycelial growth on silthiopham-amended agar; assay type: cell-based; on ACTIVITY RATING (0-3): key: 0 = no; 1 = weak; 2 = good; 3 = excellent
[1] = system: Fusarium oxysporum var. pisi race1 33-11; assay: as above; assay type: cell-based; on ACTIVITY RATING (0-3): key: 0 = no; 1 = weak; 2 = good; 3 = excellent
[2] = system: Fusarium solani, var. coeruleum 4-2; assay: as above; assay type: cell-based; on ACTIVITY RATING (0-3): key: 0 = no; 1 = weak; 2 = good; 3 = excellent
Colletotrichum trifolii = assay: as above; assay type: cell-based; details: Root rot in alfalfa; further: key: 0 = no; 1 = weak; 2 = good; 3 = excellent
[3] = system: soybean plants (CSR2121 variety); assay: Soybean seed treatment field trial, upper Midwestern United States; assay type: in vivo
Septoria nodorum = assay: In vitro inhibition of mycelial growth on silthiopham-amended agar; assay type: cell-based; details: Glum blotch; further: key: 0 = no; 1 = weak; 2 = good; 3 = excellent
[4] = system: Fusarium solani, var. pisi 34-1; assay: as above; assay type: cell-based; on ACTIVITY RATING (0-3): key: 0 = no; 1 = weak; 2 = good; 3 = excellent
[5] = system: microorganisms that are known to be soybean pathogens; assay: In vitro inhibition of mycelial growth, summary for soybean pathogens; assay type: cell-based; details: summary of Table 6
[6] = system: Fusarium solani, var. coeruleum 4-5; assay: In vitro inhibition of mycelial growth on silthiopham-amended agar; assay type: cell-based; on ACTIVITY RATING (0-3): key: 0 = no; 1 = weak; 2 = good; 3 = excellent
[7] = system: Fusarium oxysporum var. pisi race1 33-9; assay: as above; assay type: cell-based; on ACTIVITY RATING (0-3): key: 0 = no; 1 = weak; 2 = good; 3 = excellent
Rhizoctonia solani 15-9 = assay: as above; assay type: cell-based; on ACTIVITY RATING (0-3): key: 0 = no; 1 = weak; 2 = good; 3 = excellent
[8] = system: Fusarium solani, var. pisi 34-2; assay: as above; assay type: cell-based; on ACTIVITY RATING (0-3): key: 0 = no; 1 = weak; 2 = good; 3 = excellent
Phytopthera infestans = assay type: cell-based; details: Late blight
[9] = system: Fusarium oxysporum var. pisi race1 33-10; assay: In vitro inhibition of mycelial growth on silthiopham-amended agar; assay type: cell-based; on ACTIVITY RATING (0-3): key: 0 = no; 1 = weak; 2 = good; 3 = excellent
soybean plants = assay: Soybean seed treatment field trial on five farms in South Africa; assay type: in vivo
[10] = system: Gaeumannomyces graminis var. tritici; assay: In vitro inhibition of mycelial growth on silthiopham-amended agar; assay type: cell-based; on ACTIVITY RATING (0-3): key: 0 = no; 1 = weak; 2 = good; 3 = excellent
[11] = Fusarium solani, 96 h, Czapek-Dox agar, 4 days at 18° C., log-log fit
[12] = seed treatment prior to planting, at plant maturity
[13] = Fusarium oxysporum, 96 h, Czapek-Dox agar, 4 days at 18° C., log-log fit

C=CCNC(=O)c1c([Si](C)(C)C)sc(C)c1C [Silthiopham, 4,5-dimethyl-N-(2-propenyl)-2-(trimethylsilyl)-3-thiophenecarboxamide]
EC50 (Rhizoctonia solani 15-10; Rhizoctonia solani, 1510, 96 h, Czapek-Dox agar, 4 days at 18° C., log-log fit): 132 µg/mL (≈ 494 µM)
ACTIVITY RATING (0-3) (Rhizoctonia solani 15-10; Sheath blight): 0
EC50 ([1]; Fusarium oxysporum, 96 h): 36100 µg/mL (≈ 135000 µM)
ACTIVITY RATING (0-3) ([1]; Root rot): 0
EC50 [2, 11]: 113 µg/mL (≈ 423 µM)
ACTIVITY RATING (0-3) ([2]; Root rot): 0
ACTIVITY RATING (0-3) (Colletotrichum trifolii): 0
improvement in yield compared with untreated control beans ([3]; FIG. 3, soybean yield): no improvement over the untreated control
seed weight increase (beans larger) than untreated control beans ([3]; FIG. 4): performed comparably with untreated beans
plant height increase (plants taller) than untreated control beans ([3]; FIG. 5): performed comparably with untreated beans
Canopy (% coverage) ([3]; percent of canopy closure, 100% is total coverage): 78%
Plant Height [3, 12]: 22.8 inches
Seed Weight [3, 12]: 11.0 gm/100 seeds
Grain Yield ([3]; seed treatment prior to planting, determined at plant maturity, adjusted to 13% moisture): 36.4 bu/ac
Vigor (1 worst-9 best) ([3]; standard 1-9 scale, 1 worst, 9 best and most vigorous): 6
ACTIVITY RATING (0-3) (Septoria nodorum): 0
EC50 [4, 11]: 126 µg/mL (≈ 470 µM)
ACTIVITY RATING (0-3) ([4]; Root rot): 0
activity against soybean pathogens (in words) [5]: little or no activity
EC50 [6, 11]: 127 µg/mL (≈ 476 µM)
ACTIVITY RATING (0-3) ([6]; Root rot): 0
EC50 [7, 13]: 109 µg/mL (≈ 407 µM)
ACTIVITY RATING (0-3) ([7]; Root rot): 0
EC50 (Rhizoctonia solani 15-9; Rhizoctonia solani, 159, 96 h, Czapek-Dox agar, 4 days at 18° C., log-log fit): 162 µg/mL (≈ 607 µM)
ACTIVITY RATING (0-3) (Rhizoctonia solani 15-9; Sheath blight): 0
EC50 [8, 11]: 106 µg/mL (≈ 398 µM)
ACTIVITY RATING (0-3) ([8]; Root rot): 0
ACTIVITY RATING (0-3) (Phytopthera infestans): 0
EC50 [9, 13]: 112 µg/mL (≈ 421 µM)
ACTIVITY RATING (0-3) ([9]; Root rot): 0
SOYBEAN YIELD (soybean plants; Avg. of farms 3-5 (dryland)): 1949 kg/ha
SOYBEAN YIELD (soybean plants; Farm 4, dryland, cultivar SNK444, sand clay 12%): 1844 kg/ha
SOYBEAN YIELD (soybean plants; Farm 5, dryland, cultivar SNK400, clay 40%): 2054 kg/ha
grain yield, statistical comparison (soybean plants; combination vs standard Mollyflo+Bradyrhizobium, silthiopham alone vs non-treated control): did not significantly differ from the non-treated control
visual appearance of vegetative growth (soybean plants; compared to the standard Mollyflo+inoculant treatment): appeared visually greener and more vigorous
number of nodules on plant roots (soybean plants; farms 4 and 5, FIGS. 6 and 7, plants in 400-mm rows): did not substantially affect the number of nodules
plant weight (soybean plants; farms 4 and 5, FIGS. 8 and 9, 2 meters per plot): no effect on plant weight
visual appearance of nodules (soybean plants; where silthiopham was included in the treatment): Nodules visually appeared healthier
EC50 ([10]; Gaeumannomyces graminis, 96 h, Czapek-Dox agar, 4 days at 18° C., log-log fit): 0.001 µg/mL (≈ 0.00374 µM)
ACTIVITY RATING (0-3) ([10]; Take-all disease in cereals): 3
activity against Gaerumannomyces graminis var. tritici (in words) ([10]; summary of Table 6): excellent activity
